Measured values as given in patent publication US9611278B2 (Merck Sharp & Dohme Corp., priority 2013, dated 2017).
Blank lines part the entries; values can stand above or below the compound they belong to.

Target: T1, sGC α1/β1 heterodimer stably expressed in CHO-K1 cells (CHO-K1/sGC) (Homo sapiens, UniProt Q02108+Q02153)
T1 construct: expressed in transfected cells
T1 sequence (Q02108 1-690): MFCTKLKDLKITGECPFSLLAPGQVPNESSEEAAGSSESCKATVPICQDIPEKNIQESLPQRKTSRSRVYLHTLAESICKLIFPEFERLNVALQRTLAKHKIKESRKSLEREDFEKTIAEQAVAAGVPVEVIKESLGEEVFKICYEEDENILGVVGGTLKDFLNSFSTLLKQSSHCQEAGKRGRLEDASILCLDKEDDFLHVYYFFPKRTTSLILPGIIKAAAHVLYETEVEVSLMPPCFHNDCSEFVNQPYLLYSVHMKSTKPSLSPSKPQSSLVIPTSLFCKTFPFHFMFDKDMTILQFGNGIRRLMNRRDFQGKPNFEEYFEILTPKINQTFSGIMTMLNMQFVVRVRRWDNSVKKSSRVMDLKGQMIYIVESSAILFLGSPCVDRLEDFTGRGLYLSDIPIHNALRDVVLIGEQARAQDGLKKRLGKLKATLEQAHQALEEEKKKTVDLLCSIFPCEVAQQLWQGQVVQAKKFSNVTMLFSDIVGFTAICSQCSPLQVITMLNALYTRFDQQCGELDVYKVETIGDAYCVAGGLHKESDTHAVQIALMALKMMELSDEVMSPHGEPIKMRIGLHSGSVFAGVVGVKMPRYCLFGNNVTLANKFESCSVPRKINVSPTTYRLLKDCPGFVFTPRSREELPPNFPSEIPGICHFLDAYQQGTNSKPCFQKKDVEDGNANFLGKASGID
T1 sequence (Q02153 1-619): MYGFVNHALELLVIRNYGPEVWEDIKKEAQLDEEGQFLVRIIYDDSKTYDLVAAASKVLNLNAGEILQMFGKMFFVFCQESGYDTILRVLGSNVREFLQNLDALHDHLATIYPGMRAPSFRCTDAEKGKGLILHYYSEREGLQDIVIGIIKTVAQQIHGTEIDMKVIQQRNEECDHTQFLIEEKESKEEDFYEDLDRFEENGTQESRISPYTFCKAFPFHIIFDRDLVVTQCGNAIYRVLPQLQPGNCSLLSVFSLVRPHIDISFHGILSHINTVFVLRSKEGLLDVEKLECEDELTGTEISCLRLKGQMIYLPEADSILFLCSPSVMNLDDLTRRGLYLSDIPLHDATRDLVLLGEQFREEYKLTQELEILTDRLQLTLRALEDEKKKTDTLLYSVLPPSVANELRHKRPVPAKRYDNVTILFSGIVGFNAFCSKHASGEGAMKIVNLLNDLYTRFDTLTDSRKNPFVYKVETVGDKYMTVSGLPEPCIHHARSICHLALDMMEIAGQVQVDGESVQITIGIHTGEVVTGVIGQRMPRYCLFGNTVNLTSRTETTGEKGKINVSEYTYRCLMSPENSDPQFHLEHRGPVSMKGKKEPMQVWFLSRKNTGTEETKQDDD
Assay: Cell-based sGC Functional Assay (CASA Assay)
Settings: for Emax: CHO-K1, activation as percentage of maximum cGMP production of Compound A (set to 100%), read-out: % Act.; for EC50: inflection point of cGMP generation in CHO-K1/sGC cells, 4P fit, 1 hr at 37° C., read-out: IP
Excerpt: sGC is a heme-containing enzyme that converts GTP to secondary messenger cGMP. Increases in cGMP levels affect several physiological processes including vasorelaxation through multiple downstream pathways. […] Heme-dependent activators (HDAs) preferentially activate sGC containing a ferrous heme group. To determine the effect of sGC activators on enzyme activity, the CASA assay was developed to monitor the generation of cGMP in a cell line that stably expresses the heterodimeric sGC protein.
A CHO-K1 cell line stably expressing the sGC α1/β1 heterodimer was generated using a standard transfection protocol. CHO-K1 cells were transfected with plasmids pIREShyghsGCα1 and pIRESneo-hsGCβ1 simultaneously using FUGENE reagent. Clones that stably express both subunits were selected with hygromycin and neomycin for ˜2 weeks. Clone #7 was chosen for the assay and was designated CHO-K1/sGC. CHO-K1/sGC cells were maintained in F-K12 medium containing 10% heat-inactivated Fetal Bovine Serum (FBS), 100 μg/mL penicillin/streptomycin, 0.5 mg/mL hygromycin and 0.25 mg/mL G418. The cells were then cryopreserved in LN2. On the day of the assay, cells thawed and resuspended in EBSS Assay Buffer (EAB, Sigma, E3024) supplemented with 5 mM MgCl2, 10 mM HEPES (4-(2-hydroxyethyl)piperazine-1-ethanesulfonic acid) and 0.05% BSA (bovine serum albumin) and cell density was then adjusted to 4×10^5/mL with EAB. IBMX (3-isobutyl-1-methylxanthin, 0.5 mM) was added to inhibit degradation of cGMP. Compounds were diluted from DMSO stock solutions and added to the assay at a final DMSO concentration of 2.5%. Cells were incubated with compounds in the presence and absence of 1 μM of Diethylenetriamine/nitric oxide adduct (DETA-NO; Sigma, 17018) for 1 hr at 37° C. At the end of the incubation period, the reaction was terminated and the cells were lysed with the detection reagents from Cisbio Kits. The level of intracellular cGMP was determined using an HTRF-based assay kit (CisBio, 62GM2PEC), which detects the displacement of a fluorescence labeled cGMP from its specific antibody. The cGMP produced by test compounds was directly compared to the maximum cGMP production (this value was set to equal 100% activation.) of the published sGC-HDA Compound A:
(Example 1 in WO 2010/065275, published Jun. 10, 2010). The test compounds' activity were then expressed as a percentage of Compound A, the standard in every experiment. This percent activation was calculated either in the presence or absence of DETA-NO which was then plotted. IP and maximum fold induction was derived using ADA analysis software for 4P fit.

SMILES: Cn1ncc2c(-c3nc(N)c4c(n3)NC(=O)C4(c3ccc(Cl)cn3)C3CC3)nc(CC3CC(F)(F)C3)nc21 (stereo not shown) [Example 31, 4-Amino-5-(5-chloropyridin-2-yl)-5-cyclopropyl-2-(6-((3,3-difluorocyclobutyl)methyl)-1-methyl-1H-pyrazolo[3,4-d]pyrimidin-4-yl)-5,7-dihydro-6H-pyrrolo[2,3-d]pyrimidin-6-one]
Emax: 169% | EC50: 44 nM

SMILES: Cn1ncc2c(-c3nc(N)c4c(n3)NC(=O)C4(C)c3ccccn3)nc(CCCC(F)(F)F)nc21 (stereo not shown) [Example 21, 4-Amino-5-methyl-2-(1-methyl-6-(4,4,4-trifluorobutyl)-1H-pyrazolo[3,4-d]pyrimidin-4-yl)-5-(pyridin-2-yl)-5,7-dihydro-6H-pyrrolo[2,3-d]pyrimidin-6-one]
Emax: 111% | EC50: 138 nM

SMILES: Cn1ncc2c(-c3nc(N)c4c(n3)NC(=O)C4(C)c3ccc(Cl)cn3)nc(CC3CC(F)(F)C3)nc21 (stereo not shown) [Example 37, 4-Amino-5-(5-chloropyridin-2-yl)-2-(6-((3,3-difluorocyclobutyl)methyl)-1-methyl-1H-pyrazolo[3,4-d]pyrimidin-4-yl)-5-methyl-5,7-dihydro-6H-pyrrolo[2,3-d]pyrimidin-6-one]
Emax: 192% | EC50: 41 nM

SMILES: [2H]C([2H])([2H])n1ncc2c(-c3nc(N)c4c(n3)NC(=O)C4(C)c3ccc(C(F)(F)F)nc3)nc(CCC(F)(F)C(F)(F)F)nc21 (stereo not shown) [Example 10, 4-Amino-5-methyl-2-(1-(methyl-d3)-6-(3,3,4,4,4-pentafluorobutyl)-1H-pyrazolo[3,4-d]pyrimidin-4-yl)-5-(6-(trifluoromethyl)pyridin-3-yl)-5,7-dihydro-6H-pyrrolo[2,3-d]pyrimidin-6-one]
Emax: 114% | EC50: 665 nM

SMILES: CCCCc1nc(-c2nc(N)c3c(n2)NC(=O)C3(C)c2ccc(F)cn2)c2cnn(C)c2n1 (stereo not shown) [Example 34, 4-Amino-2-(6-butyl-1-methyl-1H-pyrazolo[3,4-d]pyrimidin-4-yl)-5-(5-fluoropyridin-2-yl)-5-methyl-5,7-dihydro-6H-pyrrolo[2,3-d]pyrimidin-6-one]
Emax: 109% | EC50: 44 nM

SMILES: Cn1ncc2c(-c3nc(N)c4c(n3)NC(=O)C4(c3nnc(C4CC4)o3)C3CC3)nc(CC3CC(F)(F)C3)nc21 (stereo not shown) [Example 51, 4-Amino-5-cyclopropyl-5-(5-cyclopropyl-1,3,4-oxadiazol-2-yl)-2-(6-((3,3-difluorocyclobutyl)methyl)-1-methyl-1H-pyrazolo[3,4-d]pyrimidin-4-yl)-5,7-dihydro-6H-pyrrolo[2,3-d]pyrimidin-6-one]
Emax: 154% | EC50: 119 nM

Further compounds by falling EC50, results first:

Emax: 143% | EC50: 825 nM
SMILES: [2H]C([2H])([2H])n1ncc2c(-c3nc(N)c4c(n3)NC(=O)C4(c3nnc(C4CC4)o3)C3CC3)nc(CCCC(F)(F)F)nc21 (stereo not shown) [Example 43, 4-Amino-5-cyclopropyl-5-(5-cyclopropyl-1,3,4-oxadiazol-2-yl)-2-(1-(methyl-d3)-6-(4,4,4-trifluorobutyl)-1H-pyrazolo[3,4-d]pyrimidin-4-yl)-5,7-dihydro-6H-pyrrolo[2,3-d]pyrimidin-6-one]

Emax: 137% | EC50: 604 nM
SMILES: CC(CC(F)(F)F)c1nc(-c2nc(N)c3c(n2)NC(=O)C3(C)c2ccc(F)cn2)c2cnn(C)c2n1 (stereo not shown) [Example 6, 4-Amino-5-(5-fluoropyridin-2-yl)-5-methyl-2-(1-methyl-6-(4,4,4-trifluorobutan-2-yl)-1H-pyrazolo[3,4-d]pyrimidin-4-yl)-5,7-dihydro-6H-pyrrolo[2,3-d]pyrimidin-6-one]

Emax: 78% | EC50: 509 nM
SMILES: [2H]C([2H])([2H])n1ncc2c(-c3nc(N)c4c(n3)NC(=O)C4(c3nc(CC(C)(C)C(=O)OCC)cs3)C3CC3)nc(CCC(F)(F)C(F)(F)F)nc21 (stereo not shown) [Example 82, Ethyl 3-(2-(4-amino-5-cyclopropyl-2-(1-(methyl-d3)-6-(3,3,4,4,4-pentafluorobutyl)-1H-pyrazolo[3,4-d]pyrimidin-4-yl)-6-oxo-6,7-dihydro-5H-pyrrolo[2,3-d]pyrimidin-5-yl)thiazol-4-yl)-2,2-dimethylpropanoate]

Emax: 90% | EC50: 408 nM
SMILES: Cn1ncc(C2(C)C(=O)Nc3nc(-c4nc(CCC(F)(F)C(F)(F)F)nc5c4cnn5C)nc(N)c32)n1 (stereo not shown) [Example 80, 4-Amino-5-methyl-5-(2-methyl-2H-1,2,3-triazol-4-yl)-2-(1-methyl-6-(3,3,4,4,4-pentafluorobutyl)-1H-pyrazolo[3,4-d]pyrimidin-4-yl)-5,7-dihydro-6H-pyrrolo[2,3-d]pyrimidin-6-one]

Emax: 110% | EC50: 269 nM
SMILES: CC(C)n1ncc(C2(C)C(=O)Nc3nc(-c4nc(CCC(F)(F)C(F)(F)F)nc5c4cnn5C)nc(N)c32)n1 (stereo not shown) [Example 61, 4-Amino-5-(2-isopropyl-2H-1,2,3-triazol-4-yl)-5-methyl-2-(1-methyl-6-(3,3,4,4,4-pentafluorobutyl)-1H-pyrazolo[3,4-d]pyrimidin-4-yl)-5,7-dihydro-6H-pyrrolo[2,3-d]pyrimidin-6-one]

Emax: 121% | EC50: 230 nM
SMILES: Cn1ncc2c(-c3nc(N)c4c(n3)NC(=O)C4(C)c3ccc(F)cn3)nc(CCC3CC(F)(F)C3)nc21 (stereo not shown) [Example 29, 4-Amino-2-(6-(2-(3,3-difluorocyclobutyl)ethyl)-1-methyl-1H-pyrazolo[3,4-d]pyrimidin-4-yl)-5-(5-fluoropyridin-2-yl)-5-methyl-5,7-dihydro-6H-pyrrolo[2,3-d]pyrimidin-6-one]

Emax: 113% | EC50: 149 nM
SMILES: CC(C)c1nnc(C2(C3CC3)C(=O)Nc3nc(-c4nc(CCC(F)(F)C(F)(F)F)nc5c4cnn5C)nc(N)c32)o1 (stereo not shown) [Example 49, 4-Amino-5-cyclopropyl-5-(5-isopropyl-1,3,4-oxadiazol-2-yl)-2-(1-methyl-6-(3,3,4,4,4-pentafluorobutyl)-1H-pyrazolo[3,4-d]pyrimidin-4-yl)-5,7-dihydro-6H-pyrrolo[2,3-d]pyrimidin-6-one]

Emax: 88% | EC50: 96 nM
SMILES: CCCCc1nc(-c2nc(N)c3c(n2)NC(=O)C3(C)c2ccc(C(C)C)cn2)c2cnn(C)c2n1 (stereo not shown) [Example 35, 4-Amino-2-(6-butyl-1-methyl-1H-pyrazolo[3,4-d]pyrimidin-4-yl)-5-(5-isopropylpyridin-2-yl)-5-methyl-5,7-dihydro-6H-pyrrolo[2,3-d]pyrimidin-6-one]
